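Interpolation was linear, between the two tested concentrations surrounding the appropriate level; five concentrations were tested over 48 hours in 96-well plates. Abbreviation: GI50, concentration required for 50% inhibition of growth. Definition used: TGI = concentration required for complete inhibition of growth.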
Legend:
Assay in all cases: NCI-60 cell line screen, 48 h
HCT-116 colon = tested on: HCT-116 colon
K-562 leukemia = tested on: K-562 leukemia
MDA-MB-231 breast = tested on: MDA-MB-231 breast
MDA-MB-435 = tested on: MDA-MB-435
NCI/ADR-RES ovarian = tested on: NCI/ADR-RES ovarian
OVCAR-8 ovarian = tested on: OVCAR-8 ovarian
SK-OV-3 ovarian = tested on: SK-OV-3 ovarian
SN12C renal = tested on: SN12C renal
SNB-75 CNS = tested on: SNB-75 CNS
UACC-62 melanoma = tested on: UACC-62 melanoma

| SMILES | GI50 (HCT-116 colon) [µM] | TGI (HCT-116 colon) [µM] | GI50 (K-562 leukemia) [µM] | TGI (K-562 leukemia) [µM] | GI50 (MDA-MB-231 breast) [µM] | TGI (MDA-MB-231 breast) [µM] | GI50 (MDA-MB-435) [µM] | TGI (MDA-MB-435) [µM] | GI50 (NCI/ADR-RES ovarian) [µM] | TGI (NCI/ADR-RES ovarian) [µM] | GI50 (OVCAR-8 ovarian) [µM] | TGI (OVCAR-8 ovarian) [µM] | GI50 (SK-OV-3 ovarian) [µM] | TGI (SK-OV-3 ovarian) [µM] | GI50 (SN12C renal) [µM] | TGI (SN12C renal) [µM] | GI50 (SNB-75 CNS) [µM] | TGI (SNB-75 CNS) [µM] | GI50 (UACC-62 melanoma) [µM] | TGI (UACC-62 melanoma) [µM] |
| --- | --- | --- | --- | --- | --- | --- | --- | --- | --- | --- | --- | --- | --- | --- | --- | --- | --- | --- | --- | --- |
| Oc1ccc2cc(Br)ccc2c1-c1c(O)ccc2cc(Br)ccc12 | 1.95 | 4.01 | 2.88 | 11.1 | 1.76 | 4.55 | 3.04 | 11.2 | 2.97 | 9.22 | 3.9 | 15.4 | 4.72 | 17.3 | 2.04 | 4.81 | 3.15 | 13.9 | 2.2 | 8.5 |
| COc1cc(NS(C)(=O)=O)ccc1Nc1c2ccc(Cl)cc2nc2c(OC)cccc12 | 0.0794 | 2.05 | 0.425 | > 100 | 3 | 15.6 | 0.913 | 16 | 1.35 | > 49.4 | 0.186 | 5.07 | 0.117 | 2 | 0.0628 | 3.53 | 0.0966 | 1.59 | 0.189 | 2.96 |
| Cn1nccc1Nc1nccc(-c2cc3c(s2)C(C)(C)N(CCN2CCOCC2)C3=O)n1 | 0.594 | > 100 | 11.7 | > 100 | 2.8 | > 100 | 0.852 | > 100 | 56 | > 100 | 24.3 | > 100 | 17 | > 86.2 | 17.1 | > 100 | 15.9 | > 100 | 0.274 | > 100 |
| CC[C@@H](C(=O)[C@@H](C)[C@@H](O)[C@H](C)[C@@H]1O[C@@H]([C@@H](CC)C(=O)O)CC[C@@H]1C)C1O[C@]2(C=CC(=O)[C@]3(CC[C@@](C)([C@H]4CC[C@](O)(CC)[C@H](C)O4)O3)O2)[C@H](C)C[C@@H]1C (stereo not given in full) | 0.69 | 15.3 | 0.371 | > 27.4 | 0.854 | 6.01 | 1.21 | 2.8 | 0.766 | 21.1 | 1.73 | > 45.2 | 3.7 | 16 | 0.179 | 15 | 1.21 | 7.12 | 1.29 | 2.67 |
| O=C1NN(c2ccc(C(=O)O)cc2)C(=O)/C1=C\c1ccc([N+](=O)[O-])o1 | 20.8 | 42.8 | 27.3 | 72.1 | 58.5 | > 100 | 32.1 | > 100 | 89.3 | > 100 | 51.1 | > 100 | > 100 | > 100 | 58.8 | > 100 | > 100 | > 100 | 62 | > 100 |
| C/C=C(\C)C(=O)N[C@H]1CC[C@]2(C)C3CC[C@@]4(C)C(CC[C@@H]4C(C)N(C)C)C3CCC2[C@H]1OC(C)=O (stereo not given in full) | 1.04 | 2.42 | 0.524 | 2.17 | 1.91 | 4.02 | 1.13 | 2.84 | 3.11 | 12 | 3.38 | > 25.8 | 2.06 | 4.27 | 1.7 | 4.26 | 1.65 | 3.59 | 1.95 | 3.74 |
| c1ccc(Cn2cc3c(c2-c2ccccc2)CCc2cnoc2-3)cc1 | 3.27 | > 100 | 2.14 | 7.31 | 5.68 | > 100 | 1.89 | 7.18 | 2.75 | 9.53 | 8.05 | > 100 | 7.36 | > 100 | 7.83 | > 100 | 3.27 | 63.4 | 4.48 | > 100 |
